The values below come from paper PMC8072931, “Thermodynamic Evaluation of the Interactions between Anticancer Pt(II) Complexes and Model Proteins” (Molecules, 2021).

For assay [1], the target named is T1, hen egg-white lysozyme (HEWL) (Gallus gallus, UniProt P00698).
T1 construct: gene LYZ
Briefly: UV-Vis absorbance titration (binding constant K), […]; DSC; ESI-MS. The conditions noted are these: read-out: K (M^-1) ^1.

The target in assay [2] is T1, hen egg-white lysozyme (HEWL). Nature of the assay: UV-Vis absorbance titration (binding constant K), […]; DSC (no adduct seen in ESI-MS). Particulars: read-out: K (M^-1) ^1.

T1 sequence (P00698 19-147): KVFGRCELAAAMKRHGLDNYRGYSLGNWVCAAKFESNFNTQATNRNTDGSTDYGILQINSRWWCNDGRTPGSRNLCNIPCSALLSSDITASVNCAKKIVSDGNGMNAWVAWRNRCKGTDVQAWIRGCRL

With `O=S(=O)(O)C(F)(F)F.[Cl][Pt-2]12[n+]3ccccc3-c3cc(-c4ccccc4)cc([n+]31)-c1cccc[n+]12` [compound 1, [PtCl(4′-phenyl-2,2′:6′,2″-terpyridine)](CF3SO3)], the Kd in assay [1] came to 58.8 µM.
For `O=S(=O)(O)C(F)(F)F.[I][Pt-2]12[n+]3ccccc3-c3cc(-c4ccccc4)cc([n+]31)-c1cccc[n+]12` [compound 2, [PtI(4′-phenyl-2,2′:6′,2″-terpyridine)](CF3SO3)], in assay [2], the Kd worked out at 83.3 µM.
